The source of these data is ChEMBL document CHEMBL2163338, “Development of triazene prodrugs for ADEPT strategy: new insights into drug delivery system based on carboxypeptidase G2 activation” (Bioorg Med Chem Lett, 2012).

The half-life is the time in which the quantity being followed falls by half. High values mean slow loss, low ones fast loss. In general, Km refers to the concentration of substrate that gives half-maximal velocity. As usually defined, the Vmax is the rate approached at saturating substrate. By kcat is commonly meant the number of substrate molecules converted per active site and unit of time at saturation. For orientation: kcat/Km means the second-order rate constant that governs catalysis at low substrate concentration.

The nature of data set [1]: Half life in phosphate buffered saline at pH 7.4. Format: physicochemical.
Data set [2] relates to Pseudomonas sp. Briefly: Activity of Pseudomonas sp. carboxypeptidase G2 assessed as half life of compound hydrolysis by UV spectrophotometric analysis.
Data set [3] relates to Pseudomonas sp. The data set is described as follows: Activity of Pseudomonas sp. carboxypeptidase G2 assessed as compound hydrolysis by Michaelis-Menten plot analysis.
For data set [4], the system named is Pseudomonas sp. The data set is described as follows: Ratio of Kcat to Km for Pseudomonas sp. carboxypeptidase G2.
The next data set deals with Albumin (Homo sapiens, UniProt P02768). The data set is described as follows: Binding affinity to human serum albumin by HPLC analysis. Format: ADME. To be noted: isolated protein.
The nature of data set [5]: Protein binding in human plasma. Format: ADME, cell-free. As to conditions: read-out: PPB (converted); call rule not given here.

Albumin, sequence (P02768 whole entry): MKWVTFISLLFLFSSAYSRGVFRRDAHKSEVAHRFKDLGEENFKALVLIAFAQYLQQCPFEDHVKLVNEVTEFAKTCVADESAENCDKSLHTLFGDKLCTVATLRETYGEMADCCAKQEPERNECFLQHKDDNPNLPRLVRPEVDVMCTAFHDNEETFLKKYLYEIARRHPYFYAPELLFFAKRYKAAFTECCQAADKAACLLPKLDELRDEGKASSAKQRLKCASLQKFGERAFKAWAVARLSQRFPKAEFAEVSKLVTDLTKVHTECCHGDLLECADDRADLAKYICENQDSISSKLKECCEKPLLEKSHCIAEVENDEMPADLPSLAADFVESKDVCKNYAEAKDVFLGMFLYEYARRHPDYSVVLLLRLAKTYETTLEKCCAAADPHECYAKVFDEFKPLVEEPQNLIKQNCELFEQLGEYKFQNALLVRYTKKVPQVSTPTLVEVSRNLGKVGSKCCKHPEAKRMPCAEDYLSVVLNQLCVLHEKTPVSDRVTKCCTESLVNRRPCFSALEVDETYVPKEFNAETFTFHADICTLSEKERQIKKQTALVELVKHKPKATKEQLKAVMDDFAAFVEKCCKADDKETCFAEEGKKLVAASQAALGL

Turning to `Cc1cc(NC(=O)Nc2ccc(N(CCCl)CCCl)cc2)c2ccccc2n1`, the half-life in data set [1] was 16.5 h.

Take `CN(C(=O)OCc1ccc(NC(=O)N[C@@H](CCC(=O)O)C(=O)O)cc1)c1ccc(N(CCI)CCI)cc1`: the half-life in data set [1] was less than 0.0667 h.

`CN(/N=N/c1ccc(C#N)cc1)C(=O)N[C@@H](CCC(=O)O)C(=O)O` came in with a half-life in data set [1] of 2.17 h. The T1/2 in the data set with Pseudomonas sp. [2] was found to be 3.5 min. In addition, in the data set on Pseudomonas sp. [3], the Km worked out at 17.7 µM, the Vmax is 4.94 µM/min and the kcat is 4.64 s⁻¹. Also, the kcat/Km in the data set on Pseudomonas sp. [4] came out at 260000 M⁻¹ s⁻¹.

Consider `CN(/N=N/c1ccc(Br)cc1)C(=O)N[C@@H](CCC(=O)O)C(=O)O`, for which, in data set [1], the half-life amounted to 3.66 h. For the same compound, the result on Albumin was Active.

Turning to `O=C(O)CC[C@H](NC(=O)Nc1ccc(N(CCCl)CCCl)c(Cl)c1)C(=O)O`, in data set [1], the half-life is less than 0.283 h.

In turn, `Cc1ccc(/N=N/N(C)C(=O)N[C@@H](CCC(=O)O)C(=O)O)cc1` yielded a half-life in data set [1] of 7.63 h.

In data set [1], `O=C(O)CC[C@H](NC(=O)Nc1ccc(N(CCCl)CCCl)c(F)c1)C(=O)O` gave a half-life of less than 0.283 h.

With `CN(C(=O)OCc1ccc(NC(=O)N[C@@H](CCC(=O)O)C(=O)O)cc1)c1ccc(N(CCBr)CCBr)cc1`, the half-life in data set [1] is less than 0.0667 h.

`O=C(O)CC[C@H](NC(=O)Nc1ccc(COC(=O)Nc2ccc(N(CCBr)CCBr)cc2N(CCBr)CCBr)cc1)C(=O)O`: the half-life in data set [1] was less than 0.0667 h.

`CCOC(=O)c1ccc(/N=N/N(C)C(=O)N[C@@H](CCC(=O)OC)C(=O)OC)cc1`: the half-life in data set [1] was 102 h.

`CCOC(=O)c1ccc(/N=N/N(C)C(=O)N[C@@H](CCC(=O)O)C(=O)O)cc1` yielded a half-life in data set [1] of 2.89 h. In addition, the T1/2 with Pseudomonas sp. [2] was found to be 5.7 min. Also, in the data set with Pseudomonas sp. [3], the Michaelis-Menten constant (Km) was 2.73 µM, the Vmax came to 1.18 µM/min and the kcat amounted to 1.11 s⁻¹. Further, in the data set on Pseudomonas sp. [4], the kcat/Km worked out at 410000 M⁻¹ s⁻¹.

Regarding `CC(=O)c1ccc(/N=N/N(C)C(=O)N[C@@H](CCC(=O)O)C(=O)O)cc1`, in data set [1], the half-life stood at 0.0433 h.

Take `O=C(O)CC[C@H](NC(=O)c1ccc(N(CCCl)CCCl)cc1)C(=O)O`: the fraction unbound in data set [5] was 0.08.

With `CN(/N=N/c1ccc(C(N)=O)cc1)C(=O)N[C@@H](CCC(=O)O)C(=O)O`, the half-life in data set [1] is 0.107 h.

For `O=C(O)CC[C@H](NC(=O)Nc1ccc(COC(=O)Nc2ccc(N(CCI)CCI)cc2N(CCI)CCI)cc1)C(=O)O`, the half-life in data set [1] is less than 0.0667 h.

With `CN(C(=O)OCc1ccc(NC(=O)N[C@@H](CCC(=O)O)C(=O)O)cc1)c1ccc(N(CCCl)CCCl)cc1`, the Km in the data set on Pseudomonas sp. [3] came to 6.1 µM.

The compound `O=C(O)CC[C@H](NC(=O)Nc1ccc(N(CCCl)CCCl)cc1)C(=O)O` showed a half-life in data set [1] of 0.28 h. In addition, the Km in the data set with Pseudomonas sp. [3] came out at 3 µM.
